From the METLIN SMRT retention time set (Domingo-Almenara et al. 2019)

experiment: gradient 5% acetonitrile 3 min, to 50% in 2 min, to 85% in 15 min, held 3 min, 100 µL/min; conditions: column: Zorbax Extend-C18 2.1 x 50 mm; eluents: water / acetonitrile, 0.1% formic acid
In short: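 Using water and acetonitrile that each contained 0.1% formic acid, mixtures of ~100 pure standards were separated at 100 μL/min on a Zorbax Extend-C18 column (2.1 × 50 mm, 1.8 μm). The HPLC fed a quadrupole time-of-flight mass spectrometer working in positive and negative ionization mode, with dead and dwell volumes of 40 μL and 900 μL. Data were acquired over 3 months. Retention time was read from computationally picked adduct peaks after manual inspection of each.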

Question: With `CCc1nc2cc(-c3noc(CNC(=O)c4ccccc4)n3)ccc2o1` as the compound, how does the RP-LC retention time read?
Answer: The RP-LC retention time was 821 s.

Question: With `O=C(Nc1nnc(SCc2nnc(-c3ccc4c(c3)OCO4)o2)s1)c1cccs1` as the compound, how does the RP-LC retention time read?
Answer: The RP-LC retention time was 815 s.

Question: Which RP-LC retention time does the source give for `CC1CCN(C(=O)Cn2nc(-c3nc(-c4cccc(Cl)c4)no3)ccc2=O)CC1` here?
Answer: The RP-LC retention time was 1040 s.

Question: With `CCCNC(=O)C(=O)NCC(c1ccc2c(c1)CCCN2C)N1CCCCC1` (stereo not drawn) as the compound, how does the RP-LC retention time read?
Answer: The RP-LC retention time was 598 s.

Question: Which RP-LC retention time does the source give for `CC(C)Cn1c(=O)c(-c2ccc(C(=O)N3CCN(C)CC3)cc2)nc2ccccc21` here?
Answer: Its RP-LC retention time is 670 s.

Question: With `CC(C)NC(=O)CC1Sc2ncccc2N(C)C1=O` (stereo not drawn) as the compound, how does the RP-LC retention time read?
Answer: The RP-LC retention time was 604 s.

Question: With `Cc1ccc(CNC(=O)Cn2c3ccccc3c3cnn(C)c(=O)c32)o1` as the compound, how does the RP-LC retention time read?
Answer: Its RP-LC retention time is 925 s.

Question: For `CCCCN1CC(c2nc3ccccc3n2CCOc2ccccc2OC)CC1=O` (stereo not drawn), which RP-LC retention time is on record?
Answer: The RP-LC retention time was 750 s.

Question: Which RP-LC retention time does the source give for `Cc1cccc(NC(=O)N2CCC(c3cc(N)on3)CC2)c1C` here?
Answer: Its RP-LC retention time is 685 s.

Question: For `O=C(Nc1ccc(Br)cc1F)C1CCN(C(=O)c2cccn2-c2cccnc2)CC1`, which RP-LC retention time is on record?
Answer: Its RP-LC retention time is 782 s.

Question: For `Cc1ccc(CN2CCCn3nc(C(=O)NCc4ccc(C)o4)cc3C2=O)cc1`, which RP-LC retention time is on record?
Answer: Its RP-LC retention time is 875 s.

Question: With `O=C(Cc1ccc(Br)cc1)N1CCN(c2cc(-c3ccccc3)[nH]n2)CC1` as the compound, how does the RP-LC retention time read?
Answer: Its RP-LC retention time is 873 s.

Question: Which RP-LC retention time does the source give for `CC1CCCN(C(=O)C2CCN(c3cc(N4CCCCC4)ncn3)CC2)C1` (stereo not drawn) here?
Answer: The RP-LC retention time was 683 s.

Question: Which RP-LC retention time does the source give for `Cc1cc(C(=O)Nc2ccc(Br)cc2F)n(-c2ccccc2)n1` here?
Answer: The RP-LC retention time was 1010 s.

Question: Which RP-LC retention time does the source give for `COc1ccc(-c2nc(N3CCC4(CC3)OCCO4)c3ccccc3n2)cc1` here?
Answer: Its RP-LC retention time is 726 s.

Question: With `CCOc1ccc(Nc2cc(C(=O)N3CCCC(C)C3)nc3ccc(C)cc23)cc1` (stereo not drawn) as the compound, how does the RP-LC retention time read?
Answer: Its RP-LC retention time is 776 s.

Question: With `CSc1ccc(-c2noc(Cn3ncn4nc(-c5ccccc5Cl)cc4c3=O)n2)cc1` as the compound, how does the RP-LC retention time read?
Answer: Its RP-LC retention time is 1200 s.

Question: With `CC(C)N1C(=O)c2cccnc2Sc2cc(NC(=O)c3c(F)cccc3F)ccc21` as the compound, how does the RP-LC retention time read?
Answer: Its RP-LC retention time is 865 s.

Question: For `Cc1nnc2n1CCC(NC(=O)c1ccsc1)CC2` (stereo not drawn), which RP-LC retention time is on record?
Answer: The RP-LC retention time was 559 s.

Question: For `CCOC(=O)c1c(C)[nH]c(CCC(=O)NCCN(C)C)c1C`, which RP-LC retention time is on record?
Answer: Its RP-LC retention time is 591 s.

Question: For `O=C(Nc1ccc2nc3n(c(=O)c2c1)CCCCC3)C(=O)N1CCCC1`, which RP-LC retention time is on record?
Answer: The RP-LC retention time was 684 s.

Question: Which RP-LC retention time does the source give for `O=C(Nc1cnc(N2CCCCC2)nc1)c1ccsc1` here?
Answer: Its RP-LC retention time is 800 s.

Question: With `CCc1cc(=O)n(CC(=O)Nc2ccc(F)cc2C)c(N)n1` as the compound, how does the RP-LC retention time read?
Answer: Its RP-LC retention time is 599 s.

Question: With `Cn1nccc1-c1cccc(-c2noc(-c3cc(Cl)ccc3F)n2)c1` as the compound, how does the RP-LC retention time read?
Answer: The RP-LC retention time was 1210 s.

Question: For `Cc1ccc(-c2cn3c(n2)N(C(=O)C2CCCO2)CCC3)cc1` (stereo not drawn), which RP-LC retention time is on record?
Answer: Its RP-LC retention time is 635 s.

Question: With `COCc1c(C(=O)N2CCC3(CCC3O)CC2)noc1C` (stereo not drawn) as the compound, how does the RP-LC retention time read?
Answer: Its RP-LC retention time is 618 s.

Question: With `CCCCn1cc(S(=O)(=O)Nc2ccc(F)c(F)c2)c2cccnc21` as the compound, how does the RP-LC retention time read?
Answer: Its RP-LC retention time is 966 s.

Question: For `Cc1ccc(Nc2c(C(=O)N3CCC(C)CC3)cnc3nc(C)ccc23)c(C)c1`, which RP-LC retention time is on record?
Answer: The RP-LC retention time was 674 s.

Question: With `O=C(NCC1(CO)CC1)c1ccc2nsnc2c1` as the compound, how does the RP-LC retention time read?
Answer: Its RP-LC retention time is 602 s.

Question: For `O=C(NCc1cccnc1)C1c2ccccc2C(=O)N1CCc1ccc(Cl)cc1` (stereo not drawn), which RP-LC retention time is on record?
Answer: Its RP-LC retention time is 668 s.

Question: For `CN(C)C(=O)c1n[nH]c2c1CN(C(=O)c1ccc(F)cc1F)CC2`, which RP-LC retention time is on record?
Answer: The RP-LC retention time was 629 s.

Question: Which RP-LC retention time does the source give for `Cc1nn2c(CNC(=O)Cc3cccc(C(F)(F)F)c3)c(C)nc2s1` here?
Answer: Its RP-LC retention time is 679 s.

Question: With `Cc1nc2cc(-c3noc(-c4cccc(F)c4)n3)ccc2n(C)c1=O` as the compound, how does the RP-LC retention time read?
Answer: Its RP-LC retention time is 1020 s.

Question: With `CCCNc1cc(N2CCC(CCC(=O)NCc3ccccn3)CC2)ncn1` as the compound, how does the RP-LC retention time read?
Answer: The RP-LC retention time was 556 s.

Question: For `Cn1cc(CN2CCCC(COc3ccccc3C(=O)N3CCOCC3)C2)c2ccccc21` (stereo not drawn), which RP-LC retention time is on record?
Answer: Its RP-LC retention time is 664 s.

Question: For `O=C(NCc1nnnn1C1CCCCC1)c1cccs1`, which RP-LC retention time is on record?
Answer: Its RP-LC retention time is 715 s.

Question: For `O=C(NCc1cccnc1)C(=O)NCc1ccc2c(c1)OCO2`, which RP-LC retention time is on record?
Answer: The RP-LC retention time was 588 s.

Question: With `Cc1oc(C2CCN(C(=O)Nc3ccc(F)cc3)CC2)nc1C(=O)N1CCOCC1` as the compound, how does the RP-LC retention time read?
Answer: The RP-LC retention time was 686 s.
